Measurements taken from US11089783B2, “2-(het)aryl-substituted fused heterocycle derivatives as pesticides” (Bayer Aktiengesellschaft, priority 2017, dated 2021).

Key:
Format in all cases: in vivo
Lucilia cuprina = Lucilia cuprina test; conditions: 48 h, L1 larvae, after 2 days, read-out: efficacy (kill)
Method in brief: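 About 20 L1 larvae of Lucilia cuprina placed on minced horsemeat containing compound (DMSO stock diluted in water to test concentration). Kill (%) scored after 2 days; 100% = all larvae dead, 0% = none dead.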

Myzus persicae [1] = assay: Myzus persicae spray test (MYZUPE), Chinese cabbage leaf discs; conditions: Myzus persicae, foliar, 120 h; for Emax at 4 g/ha: MYZUPE, 5 dat, read-out: % efficacy
Method in brief: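 Leaf discs of Chinese cabbage carrying all stages of green peach aphid were sprayed with compound formulated in solvent and diluted with water containing emulsifier at 1000 ppm. Percent efficacy (100% = all aphids dead) was scored after 5 days or after the desired time.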

Aphis gossypii = Aphis gossypii spray test (APHIGO), cotton plants; conditions: Aphis gossypii, 144 h, 4 ppm, 6 dat, read-out: % efficacy
Method in brief: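 Cotton plants (Gossypium hirsutum) heavily infested with cotton aphids were sprayed with the active ingredient formulated in emulsifier-containing water (1000 ppm emulsifier), with ammonium salt or penetrant added at 1000 ppm where required. After the set time, percent kill was determined, where 100% means all aphids dead.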

Phaedon cochleariae = Phaedon cochleariae spray test (PHAECO S), cabbage leaves; conditions: Phaedon cochleariae, 168 h, 7 dat, read-out: % efficacy
Protocol: [table] To produce an appropriate active ingredient formulation, 1 part by weight of active ingredient is dissolved with the specified parts by weight of solvent and made up with water containing an emulsifier concentration of 1000 ppm until the desired concentration is attained. To produce further test concentrations, the mixture is diluted with emulsifier-containing water. If addition of ammonium salts or/and penetrants is required, these are each added to the preparation solution in a concentration of 1000 ppm. Cabbage leaves (Brassica oleracea) are sprayed with an active ingredient formulation of the desired concentration and populated with larvae of the mustard beetle (Phaedon cochleariae). After the desired time, the kill in % is determined. 100% means that all beetle larvae have been killed; 0% means that no beetle larvae have been killed.

Meloidogyne incognita = Meloidogyne incognita drench test (MELGIN D); conditions: soil, 504 h, 21 dat, read-out: % efficacy
Protocol: [table] To produce an appropriate active ingredient formulation, 1 part by weight of active ingredient is mixed with the specified amounts of solvent and emulsifier and the concentrate is diluted to the desired concentration with water, it being necessary to take into account the volume of soil into which drenching is effected. It should be ensured that a concentration of 20 ppm of emulsifier in the soil is not exceeded. For production of further test concentrations, the mixture is diluted with water. Pots filled with soil (loamy sand) are drenched with the active ingredient solution. An egg/larvae suspension of the southern root-knot nematode (Meloidogyne incognita) is added, and lettuce seeds are scattered over the soil surface and covered with quartz sand. The lettuce seeds germinate and the seedlings develop. The root-knots develop on the roots. After the desired time, the nematicidal effect is determined with reference to the root-knot formation in %. 100% means that no root-knots were found; 0% means that the number of root-knots on the treated plants corresponds to that on the untreated control.

Myzus persicae [2] = assay: Myzus persicae spray test (MYZUPE S), bell pepper plants; conditions: 144 h, 6 dat, read-out: % efficacy
Method in brief: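 Infested bell pepper plants (Capsicum annuum) sprayed with active ingredient in emulsifier-containing water (1000 ppm emulsifier; ammonium salts/penetrants at 1000 ppm if required). Kill scored in % after the chosen time; 100% = all aphids dead, 0% = none.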

Musca domestica = Musca domestica test; conditions: 100 ppm, adult houseflies, after 2 days
Protocol: Solvent: dimethyl sulfoxide To produce a suitable active ingredient formulation, 10 mg of active ingredient are mixed with 0.5 ml of dimethyl sulfoxide, and the concentrate is diluted with water to the desired concentration. Vessels containing a sponge treated with sugar solution and the active ingredient formulation of the desired concentration are populated with 10 adult houseflies (Musca domestica). After 2 days, the kill in % is determined. 100% means that all of the flies have been killed; 0% means that none of the flies have been killed.

Spodoptera frugiperda = Spodoptera frugiperda spray test; conditions: 100 g/ha, after 6 days
Protocol: [table] To produce a suitable active ingredient formulation, 1 part by weight of active ingredient is dissolved with the specified parts by weight of solvent and made up to the desired concentration with water containing an emulsifier concentration of 1000 ppm. To produce further test concentrations, the formulation is diluted with emulsifier-containing water. Leaf discs of maize (Zea mays) are sprayed with an active ingredient formulation of the desired concentration and, after drying, populated with caterpillars of the armyworm (Spodoptera frugiperda). After 6 days, the efficacy in % is determined. 100% means that all the caterpillars have been killed; 0% means that no caterpillar has been killed.

[3] = 5 days (5 dat), read-out: efficacy

Row | SMILES | pest or weed control at 100 ppm (Lucilia cuprina) | pest or weed control at 20 g/ha (Myzus persicae [1]; [3]) | pest or weed control at 100 g/ha (Myzus persicae [1]; 100 g/ha, 5 days (5 dat), read-out: efficacy) | Emax at 4 ppm (Aphis gossypii) | Emax at 4 ppm (Phaedon cochleariae; 4 ppm) | Emax at 20 ppm (Phaedon cochleariae) | Emax at 1 ppm (Meloidogyne incognita; 1 ppm) | Emax at 2 ppm (Meloidogyne incognita; 2 ppm) | Emax at 4 g/ha (Myzus persicae [1]) | Emax at 0.16 ppm (Myzus persicae [2]; 0.16 ppm) | Emax at 0.8 ppm (Myzus persicae [2]; 0.8 ppm) | efficacy (kill) (Musca domestica) | efficacy (Spodoptera frugiperda)
1 | CCS(=O)(=O)c1ccc(NC(=O)NC)nc1-c1nc2cc(C(F)(F)C(F)(F)F)nnc2n1C [Example I-08, 1-{5-(ethylsulfonyl)-6-[7-methyl-3-(pentafluoroethyl)-7H-imidazo[4,5-c]pyridazin-6-yl]pyridin-2-yl}-3-methylurea] | 100% | 100% | 90% | 95% | 70% | 90% | 100% | 100% | – | – | – | – | –
2 | CCS(=O)(=O)c1ccc(N(C)C(=O)NC)nc1-c1nc2cc(C(F)(F)C(F)(F)F)nnc2n1C [Example I-09] | 100% | 100% | – | – | – | – | – | – | 70% | 80% | 100% | – | –
3 | CCS(=O)(=O)c1ccc(NC(=O)N(C)C)nc1-c1nc2cc(C(F)(F)C(F)(F)F)nnc2n1C [Example I-10] | 100% | 100% | – | 75% | – | 80% | – | – | 70% | – | – | 90% | –
4 | CCNC(=O)Nc1ccc(S(=O)(=O)CC)c(-c2nc3cc(C(F)(F)C(F)(F)F)nnc3n2C)n1 [Example I-13] | 100% | 90% | – | – | – | – | – | – | – | – | – | 80% | 83%
